Consider two compounds from PMC9668655 (Computational and Structural Biotechnology Journal, 2022).

pIC50, pKd: −log10 of the molar value.

Test [1] relates to RSL-MOA. Format: binding, Ralstonia nicotianae; Marasmius oreades. As to conditions: 50 nM RSL-MOA pre-incubated with fucose; 10 mM HEPES pH 7.5, 100 mM NaCl, 0.05 % Tween 20, 25 °C; RSL site; competitive with immobilised fucose.
The target of test [2] is RSL-MOA. It counts as binding, Ralstonia nicotianae; Marasmius oreades. The following applies: 20 mM Tris/HCl pH 7.5, 100 mM NaCl, 25 °C, one-site model, titrated into the RSL-MOA/Galα1-3Gal complex.
Test [3] deals with RSL (Ralstonia pseudosolanacearum, UniProt Q8XXK6). As to conditions: 250 µM; 250 μM ligand, 25 μM protein; absolute Tm1, not a shift (ligand-free reference in the 2nd table, row 4); 20 mM Tris/HCl pH 7.5, 100 mM NaCl.

For `C[C@@H]1OC(O)[C@@H](O)[C@H](O)[C@@H]1O` (stereo partly drawn) [L-fucose], the negative logarithm of the IC50 (pIC50) in test [1] is 5.11.

In test [2], `CO[C@@H]1O[C@@H](C)[C@@H](O)[C@@H](O)[C@@H]1O` [α-methyl fucoside] had a negative-log Kd (pKd) of 6.40. The “Tm1 (°C)” value in test [3] worked out at 101.6 °C.

As a reminder, the pIC50 is the negative decadic logarithm of the IC50, by convention in mol/L. The low end stands for a large IC50, the high end for a small IC50. By pKd is commonly meant the Kd on a negative log10 scale, so that one unit is a factor of ten. A lower pKd goes with a large Kd.
